Assay results taken from publication PMC7376644 (Pharmacology Research & Perspectives, 2020).
Where “and” joins values, the source holds several entries; their conditions need not be identical. Equal values may be shown once.

Experiments:
CYP2C19 [1] = biological target: T1, CYP2C19 (Homo sapiens, UniProt P33261); test: Qualitative substrate disappearance assay; type: in vitro ADME; parameters: purchased CYPEX CYP008; host or cells: Escherichia coli; conditions: 20 pmols rCYP, 1.0 µmol/L substrate, 30 minutes
Description: All reactions were performed in triplicate in 96‐well plates. […] The substrate was diluted to 40% ACN so that the percent organic component in the final solution was maintained at 1%. […] The reactions were initiated by addition of NADPH after a pre‐incubation of 5 minutes at 37°C. All reactions were terminated by the addition of 150 µL of ice‐cold ACN at either 0 minute (control) or 30 minutes (reaction). This was followed by centrifugation at 4500 g for 20 minutes. An aliquot (50 µL) supernatant was collected and 5 µL was injected and analyzed by liquid chromatography/tandem mass spectrometry (LC/MS/MS). Metabolism was signified qualitatively by loss of substrate from the media using the relationship: %remaining compound=[…]Peak area atT30min/Peak area atT0min×100.

CYP1A2 [2] = biological target: T2, CYP1A2 (Homo sapiens, UniProt P05177); test: in vitro; conditions: recombinant CYP1A2, pH 7.4
T2 sequence (P05177 1-516): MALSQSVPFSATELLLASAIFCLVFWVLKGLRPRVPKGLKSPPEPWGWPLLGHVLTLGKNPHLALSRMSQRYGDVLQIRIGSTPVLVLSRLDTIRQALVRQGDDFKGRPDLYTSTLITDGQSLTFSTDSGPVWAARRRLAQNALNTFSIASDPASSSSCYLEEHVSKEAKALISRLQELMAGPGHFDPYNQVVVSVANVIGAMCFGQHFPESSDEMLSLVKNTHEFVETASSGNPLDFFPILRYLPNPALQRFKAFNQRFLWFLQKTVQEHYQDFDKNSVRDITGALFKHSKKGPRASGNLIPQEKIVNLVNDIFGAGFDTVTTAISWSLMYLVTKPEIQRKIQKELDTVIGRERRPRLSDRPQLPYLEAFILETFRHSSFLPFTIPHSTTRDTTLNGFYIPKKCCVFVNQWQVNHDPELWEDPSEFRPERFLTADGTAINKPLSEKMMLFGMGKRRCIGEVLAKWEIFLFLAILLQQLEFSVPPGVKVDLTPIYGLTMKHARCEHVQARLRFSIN

CYP2C19 [3] = biological target: T1, CYP2C19; test: Intrinsic clearance, substrate depletion approach; conditions: rCYP2C19, substrate depletion
CYP2D6 [4] = biological target: T3, CYP2D6 (Homo sapiens, UniProt P10635); test: Intrinsic clearance, substrate depletion approach; conditions: rCYP2D6, substrate depletion
CYP1A2 [5] = test: CYP selective diagnostic inhibition studies in HLM, furafylline; type: in vitro ADME, human; conditions: furafylline 10 µmol/L
Description: (§1) Reactions were carried out in triplicate in 96 well plates. Each reaction was measured at 2 time points, that is at 0 and 30 minutes. […] Furafylline, KTZ, ticlopidine, and quinidine were used as diagnostic inhibitors for CYP 1A2, 3A4/5, 2C19 and 2D6, respectively. The reactions were initiated by addition of NADPH after a pre‐incubation of 5 minutes at 37°C. All reactions were terminated by the addition of 150 µL ice‐cold ACN. Internal standard (0.2 µmol/L DPZ) was added to ACN prior to termination of the assay. This was followed by centrifugation at 4500 g for 20 minutes. An aliquot (50 µL) supernatant was collected and 5 µL was injected and analyzed by liquid chromatography/tandem mass spectrometry (LC/MS/MS). The percent effect of each inhibitor was the estimated contribution of the inhibited CYP calculated using the relationship below: %contribution=amount remaining with inhibitor‐amount remaining without inhibitor/amount remaining without inhibitor×100.

HLM = test: Enzyme kinetics of hydroxylated metabolites formation; type: in vitro ADME, human
Description: The reactions were carried out in duplicate at each time point. Incubation conditions used for the determination of K M and V max were optimized for linearity with respect to time and protein concentrations. […] Metabolites were analyzed by LC‐MS/MS as described below. The K M and V max values of each marker substrate were determined using nonlinear least squares regression analysis in GraFit software (version 3.0, Erithacus Software Limited) and SigmaPlot Enzyme Kinetics Module for Windows 7.0 (SPSS, Inc). […]

[6] = cited from earlier work
CYP2C19 [7] = test: CYP selective diagnostic inhibition studies in HLM, ticlopidine; type: in vitro ADME, human; conditions: ticlopidine 10 µmol/L
Description: as §1

CYP2C19 [8] = biological target: T1, CYP2C19; test: in vitro; conditions: recombinant CYP2C19, pH 7.4
CYP1A2 [9] = biological target: T2, CYP1A2; test: Enzyme kinetics of hydroxylated metabolites formation; type: in vitro ADME; parameters: purchased CYPEX CYP001; host or cells: Escherichia coli; conditions: CYP1A2, formation of cis‐4‐OH‐PZQ
Description: The reactions were carried out in duplicate at each time point. Incubation conditions used for the determination of K M and V max were optimized for linearity with respect to time and protein concentrations. […] Metabolites were analyzed by LC‐MS/MS as described below. The K M and V max values of each marker substrate were determined using nonlinear least squares regression analysis in GraFit software (version 3.0, Erithacus Software Limited) and SigmaPlot Enzyme Kinetics Module for Windows 7.0 (SPSS, Inc).
The well‐stirred model was used to estimate the hepatic clearance (CLH) due to metabolism.

CYP1A2 [10] = biological target: T2, CYP1A2; test: Intrinsic clearance, substrate depletion approach; conditions: for Predicted CLH / Predicted CLuH,int: rCYP1A2, substrate depletion
CYP2D6 [11] = biological target: T3, CYP2D6; test: in vitro; conditions: recombinant CYP2D6, pH 7.4

T3 sequence (P10635 whole entry): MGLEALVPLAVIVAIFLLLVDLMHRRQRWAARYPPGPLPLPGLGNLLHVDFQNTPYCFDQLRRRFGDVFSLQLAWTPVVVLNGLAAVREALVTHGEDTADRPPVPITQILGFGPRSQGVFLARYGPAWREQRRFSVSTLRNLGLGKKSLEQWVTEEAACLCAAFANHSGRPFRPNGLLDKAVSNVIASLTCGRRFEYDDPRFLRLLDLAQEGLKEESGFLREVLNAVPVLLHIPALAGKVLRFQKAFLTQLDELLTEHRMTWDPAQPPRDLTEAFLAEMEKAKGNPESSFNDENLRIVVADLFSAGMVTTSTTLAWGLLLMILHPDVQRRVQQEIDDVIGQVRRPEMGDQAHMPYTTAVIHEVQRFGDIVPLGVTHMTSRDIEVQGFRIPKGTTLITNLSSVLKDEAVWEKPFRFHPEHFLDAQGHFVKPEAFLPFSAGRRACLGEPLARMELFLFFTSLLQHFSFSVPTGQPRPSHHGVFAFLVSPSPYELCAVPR
T1 sequence (P33261 whole entry): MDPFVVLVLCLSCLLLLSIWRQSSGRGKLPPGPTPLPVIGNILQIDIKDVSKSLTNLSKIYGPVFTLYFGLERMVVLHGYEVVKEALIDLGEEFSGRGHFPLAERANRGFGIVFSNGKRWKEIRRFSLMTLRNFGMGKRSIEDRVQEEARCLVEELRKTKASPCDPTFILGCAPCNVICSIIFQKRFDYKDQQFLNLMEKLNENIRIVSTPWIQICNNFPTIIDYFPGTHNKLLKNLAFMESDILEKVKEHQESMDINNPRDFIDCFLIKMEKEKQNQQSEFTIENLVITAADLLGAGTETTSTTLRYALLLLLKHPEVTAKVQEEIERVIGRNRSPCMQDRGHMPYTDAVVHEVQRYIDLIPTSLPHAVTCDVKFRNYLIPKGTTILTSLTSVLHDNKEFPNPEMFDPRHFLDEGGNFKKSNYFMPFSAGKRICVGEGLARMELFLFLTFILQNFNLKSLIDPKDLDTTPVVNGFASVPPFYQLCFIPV

Row | Depletion of substrate by CYP2C19 (CYP2C19 [1]) | half-life at 1 µmol/L (CYP1A2 [2]) [min] | Predicted CLH (CYP2C19 [3]) [mL/min/kg] | Predicted CLuH,int (CYP2C19 [3]) [mL/min/kg] | Predicted CLH (CYP2D6 [4]) [mL/min/kg] | Predicted CLuH,int (CYP2D6 [4]) [mL/min/kg] | Contribution of CYP1A2 (CYP1A2 [5]) [%] | K M [SD] (HLM; formation of X‐OH‐PZQ) | K M [SD] (HLM; formation of cis‐4‐OH‐PZQ) | V max [SD] (HLM; formation of cis‐4‐OH‐PZQ) | Contribution of CYP2C19 (CYP2C19 [7]) [%] | half-life at 1 µmol/L (CYP2C19 [8]) [min] | CLuH,int (CYP1A2 [9]) | Predicted CLH (CYP1A2 [10]) [mL/min/kg] | Predicted CLuH,int (CYP1A2 [10]) [mL/min/kg] | half-life at 1 µmol/L (CYP2D6 [11]) [min] | Clearance class, CYP1A2‐mediated (CYP1A2 [10]; substrate depletion) | Clearance by CYP1A2, R‐PZQ compared to S‐PZQ (CYP1A2 [10]; substrate depletion, times faster) [times] | Structure (SMILES) | V max [SD] (HLM; formation of X‐OH‐PZQ) | Fraction unbound in plasma (fu) [6]
1 | complete depletion | 16 | 5.600 | 30.71 | 0.1712 | 0.660 | 27 | 61.00 [22.12] µmol/L | 44.30 [12.06] µmol/L | 0.2700 [0.02999] nmol/min/mg protein | 117 | 4.13 | 0.83 mL/min/kg and 0.8300 mL/min/kg | 2.877 | 13.07 | 45.3 |  |  | O=C(C1CCCCC1)N1CC(=O)N2CCc3ccccc3[C@H]2C1 [S‐PZQ, S‐Praziquantel] | 6.3 nmol/min/mg protein and 6.300 [1.102] nmol/min/mg protein | 0.2
2 | complete depletion | 7.54 | 3.904 | 19.73 | 0.2132 | 0.860 | 61 | 29.30 [4.020] µmol/L | 38.90 [5.469] µmol/L | 0.7572 [0.0447] nmol/min/mg protein | 64 | 3.6 | 7.55 mL/min/kg and 7.550 mL/min/kg | 5.071 | 27.80 | 34.7 | high | 2 | O=C(C1CCCCC1)N1CC(=O)N2CCc3ccccc3[C@@H]2C1 [R‐PZQ, R‐Praziquantel] | 1.2 nmol/min/mg protein and 1.200 [0.06266] nmol/min/mg protein | 0.2
